Reference: article PMC6273963, “Design, Synthesis, and Biological Evaluation of Some Novel Pyrrolizine Derivatives as COX Inhibitors with Anti-Inflammatory/Analgesic Activities and Low Ulcerogenic Liability” (Molecules, 2016)
Entries after “also recorded” stand apart in the source; their conditions may differ.

How the values were obtained:
[1] = system: carrageenan-induced rat paw edema; experiment: Carrageenan-induced rat paw edema model (anti-inflammatory activity); assay type: in vivo; parameters: key to Potency (anti-inflammatory activity of tested compound/ibuprofen): ratio of % inhibition of edema (compound / ibuprofen); ibuprofen = 1.00; conditions: for % Inhibition in Edema Thickness 1 h: 1 h after induction of inflammation; for % Inhibition in Edema Thickness 1 h / % Inhibition in Edema Thickness 2 h / % Inhibition in Edema Thickness 3 h: IP, dose molecularly equivalent to ibuprofen, n = 6; for % Inhibition in Edema Thickness 2 h: 2 h after induction of inflammation; for % Inhibition in Edema Thickness 3 h: 3 h after induction of inflammation; for Potency (anti-inflammatory activity of tested compound/ibuprofen): after 3 h of induction of inflammation, relative to ibuprofen
Description: The carrageenan-induced rat paw edema model was utilized to investigate the anti-inflammatory activity of compounds 12–19 relative to ibuprofen as a reference drug.
(§1) Adult albino rats of both sex weighing 100–140 g were used in evaluation of the anti-inflammatory, analgesic, ulcerogenic activity in addition to the histopathological study of the new pyrrolizines 12–19. Animal ethical use clearance was obtained from the Ethical Committee at the College of Pharmacy, Umm Al-Qura University. Normalization of the animals with laboratory conditions were achieved by keeping them in laboratory one week before starting the experiments. Standard rat pellet diet was used for feeding animals and water ad libitum.
The anti-inflammatory activity of the novel compounds 12–19 was evaluated in comparison with ibuprofen as a standard, using a rat paw edema model as described by Winter et al.. Adult albino rats of both sexes (100–140 gm) were used. Rats were uniformly hydrated by giving 3 mL water for each rat through gastric inoculation to reduce variability to edema response. Animals were then divided into groups of six animal each. The control group was given saline solution containing few drops of sodium carboxymethyl cellulose (CMC) 1% and DMSO. Ibuprofen (50 and 100 mg/kg) was given as standard drug. The new compounds 12–19 in a dose molecularly equivalent to ibuprofen were dissolved in 0.5 mL DMSO and CMC 1% was added dropwise with continuous triturating to complete the specified volume. The tested compounds were administered intraperitoneally (IP). The induction of inflammation was achieved by subcutaneous (SC) injection of carrageenan-sodium gel, into the sub-plantar region of the right hind paw. The dorsoventral diameter (thickness) of the right and left hind paw of each rat was measured using digital calipers with accuracy of 0.01 mm (Cole-Parmer, Vernon Hills, IL, USA). The thickness of edema was measured 1, 2 and 3 h after induction of inflammation. The left hind paw diameter served as a control for the degree of inflammation in the right hind paw. The changes in the edema thickness were expressed as mean ± SEM, Figure 4. The anti-inflammatory activity was calculated as % inhibition of inflammation = (1 − Lt/Lc) × 100. Where Lt is the mean increase in paw thickness in rats treated with the tested compounds and Lc is the mean increase in paw thickness in control group. Data were collected, and statistically analyzed by One way ANOVA followed by student-Newman-Keuls multiple comparison test, Table 2.

thermal pain (hot plate) = experiment: Hot-plate test (analgesic activity); assay type: in vivo, rat; conditions: IP; for analgesic activity (in words): 0.24 and 0.48 mmol/kg, 2 h after injection, compared with ibuprofen; for analgesic potency relative to ibuprofen: 0.48 mmol/kg
Method: A hot-plate was used to induce thermal pain and the cutoff time was fixed to 15 s [30]. […] The analgesic activity of the novel pyrrolizines were carried out using the thermal model (hot-plate test) according to a previous report [30]. An electronically controlled hot-plate (Harvard Apparatus Ltd., Kent, UK) was used and the cut-off time was 15 s and the temperature was adjusted to 52 ± 0.1 °C. Animals were then divided into groups of six animal each. Rats were assigned numbers of 1–6 in each group. The reference drug was given intraperitoneally at a dose of 50 mg/kg (0.24 mmol/kg) and 100 mg/kg (0.48 mmol/kg). […] The response latencies (time elapsed until licking paw or jumping) were measured and expressed as mean ± SEM. The percent changes (analgesic effects) of the tested compounds were calculated as percent change in latencies divided by baseline time (100 × (T1 − T0)/T0) and results were expressed as % change ± SEM, Figure 6.

rat stomach mucosa = experiment: Acute ulcerogenicity study; assay type: in vivo; conditions: oral, 0.48 mmol/kg; for Ulcerogenicity UI (ulcer index): three days, n = 6
Method: GIT toxicity is the main serious side effect of the NSAIDs. In this work, the ulcerogenicity of the novel compounds 12–19 was evaluated according to the previous reported methodology. The tested compounds 12–19 and ibuprofen were given orally in a dose of 0.48 mmol/kg.
as §1
GIT toxicity was evaluated according to the previous report. Adult albino rats of both sexes were divided into groups of six animals each. The test compounds were dissolved first in 0.5 mL DMSO, then CMC (1%) was added dropwise with trituration. Rats were fasted 20 h before drug administration. The eight tested compounds and ibuprofen were given orally in a dose of 0.24 and 0.48 mmol/kg/day suspended in 1% CMC, while the control group received vehicle (1% CMC containing few drops of DMSO). Rats were then fasted for 2 h, allowed to feed for 2 h then fasted again for another 20 h. Other doses were given in the second and third days. In the fourth day, Pentobarbital (60 mg/kg IP) was used to induce deep anesthesia then rats were sacrificed. The stomachs were removed, opened along with the greater curvature and rinsed with 0.9% saline. The number of mucosal damages (red spots) were counted using magnifying lens and their severity (ulcerogenic severity) was graded in a scale from 0 to 3 as follows: (0) normal (no injury), (0.5) red coloration, (1) spot ulcer, (1.5) hemorrhagic streaks, (2) ulcer > 3 mm, (3) ulcer > 5 mm. The ulcer index was calculated using the following equation ulcer index (UI) = UN + US + UP/10, where UN is the average number pf ulcers per animal, US is the average of severity score, UP is the percent of animal with ulcer.

[2] = system: stomach mucosa, submucosa and mucosal glands; experiment: Histopathological study of rat stomach; assay type: in vivo; conditions: rats of the ulcerogenicity test, haematoxylin and eosin stain
Description: The stomachs of the rats used in ulcerogenicity test were subjected to a histopathological study to visualize the deep effects of ibuprofen and tested compounds on the stomach mucosa, submucosa and mucosal glands. The specimens were stained with haematoxylin and eosin stain [33].
The study investigated the deep effect of the tested compounds on the mucosa, submucosa and mucosal gland. The stomachs which were opened longitudinally along the greater curvature were used and the specimens were taken from the stomachs of all cases. These specimens were fixed in 10% formalin solution for 72 h. The samples were processed and embedded in paraffin wax. Microtomy was done and 5 microns tissue sections were obtained and mounted on clean glass slides.

COX-1 = conditions: cited from earlier work; for IC50: literature values, Figures 1 and 2
5-LOX = system: 5-LOX; parameters: method as in PMID 8021931, PMID 9396390, PMID 12660020, PMID 19719242; conditions: literature values, Figures 1 and 2; cited from earlier work
COX-2 = system: COX-2; parameters: method as in PMID 10027870, PMID 8021931, PMID 12660020; conditions: literature values, Figures 1 and 2; cited from earlier work
COX-1 (ovine) = molecular target: T1, COX-1 (ovine) (Ovis aries, UniProt P05979); experiment: COX colorimetric inhibitor screening assay, COX-1
T1 sequence (P05979 25-600): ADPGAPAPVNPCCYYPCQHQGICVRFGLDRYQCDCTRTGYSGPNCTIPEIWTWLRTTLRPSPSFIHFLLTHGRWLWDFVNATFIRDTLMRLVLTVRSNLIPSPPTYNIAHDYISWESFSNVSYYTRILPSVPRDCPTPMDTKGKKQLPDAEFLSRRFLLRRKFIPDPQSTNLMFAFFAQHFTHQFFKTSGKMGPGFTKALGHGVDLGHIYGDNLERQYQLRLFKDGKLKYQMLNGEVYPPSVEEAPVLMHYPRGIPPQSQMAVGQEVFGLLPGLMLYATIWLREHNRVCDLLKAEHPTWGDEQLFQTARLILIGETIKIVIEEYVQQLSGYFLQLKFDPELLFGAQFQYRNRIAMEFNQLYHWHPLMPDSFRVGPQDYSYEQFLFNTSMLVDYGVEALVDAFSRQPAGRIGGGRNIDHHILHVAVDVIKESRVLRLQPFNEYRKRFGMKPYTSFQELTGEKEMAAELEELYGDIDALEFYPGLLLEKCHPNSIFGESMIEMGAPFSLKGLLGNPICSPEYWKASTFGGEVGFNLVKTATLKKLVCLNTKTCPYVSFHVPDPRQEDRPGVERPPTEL

[3] = molecular target: T2, COX-2 (human recombinant) (Homo sapiens, UniProt P35354); experiment: COX colorimetric inhibitor screening assay, COX-2; conditions: for SI (COX-2 selectivity index = IC50 of COX-1/IC50 of COX-2): in vitro
T2 sequence (P35354 18-604): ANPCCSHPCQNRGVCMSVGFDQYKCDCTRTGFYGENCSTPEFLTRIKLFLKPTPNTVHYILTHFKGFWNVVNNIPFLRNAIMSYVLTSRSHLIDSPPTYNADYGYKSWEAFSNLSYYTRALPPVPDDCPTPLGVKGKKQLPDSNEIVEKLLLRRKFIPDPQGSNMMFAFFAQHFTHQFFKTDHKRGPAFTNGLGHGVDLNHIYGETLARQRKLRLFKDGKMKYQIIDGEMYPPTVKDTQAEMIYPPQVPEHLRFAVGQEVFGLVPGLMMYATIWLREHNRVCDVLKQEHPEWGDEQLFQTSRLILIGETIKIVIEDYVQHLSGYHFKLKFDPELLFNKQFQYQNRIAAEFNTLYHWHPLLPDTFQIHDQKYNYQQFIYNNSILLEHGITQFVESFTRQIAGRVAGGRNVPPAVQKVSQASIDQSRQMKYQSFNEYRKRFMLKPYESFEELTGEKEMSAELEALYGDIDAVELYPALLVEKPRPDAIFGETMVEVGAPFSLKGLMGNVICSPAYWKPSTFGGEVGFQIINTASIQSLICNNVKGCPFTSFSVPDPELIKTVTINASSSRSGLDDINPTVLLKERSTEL

| SMILES | % Inhibition in Edema Thickness 1 h [1] [%] | % Inhibition in Edema Thickness 2 h [1] [%] | % Inhibition in Edema Thickness 3 h [1] [%] | Potency (anti-inflammatory activity of tested compound/ibuprofen) [1] | analgesic activity (in words) (thermal pain (hot plate)) | Ulcerogenicity % Protection (% inhibition of ulcer relative to ibuprofen) (rat stomach mucosa) [%] | histopathological findings in stomach transverse sections [2] | IC50 (COX-1) [nM] | IC50 (5-LOX) [nM] | IC50 (COX-2) [µM] | also measured |
| --- | --- | --- | --- | --- | --- | --- | --- | --- | --- | --- | --- |
| CC(C)Cc1ccc(C(C)C(=O)Nc2c(C#N)c3n(c2C(=O)Nc2ccc(Br)cc2)CCC3)cc1 (racemic) [Compound 19, (R,S)-N-(4-Bromophenyl)-7-cycno-6-(2-(4-isobutylphenyl)propanamido)-2,3-dihydro-1H-pyrrolizine-5-carboxamide] | 13.82 | 22.44 | 38.79 | 0.95 | lower than that of ibuprofen | 100 | normal mucosal glands with no histopathological effects |  |  |  | anti-inflammatory activity (in words) ([1]; compared with ibuprofen and parent compound 12): weak activity after the first hour; melting point: 217 to 219 °C |
| CC1(C)Cc2c(-c3ccccc3)c(-c3ccc(Cl)s3)c(CC(=O)O)n2C1 [Compound 3] |  |  |  |  |  |  |  | 210 | 250 |  |  |
| Cc1ccc(-c2c(-c3ccc(S(C)(=O)=O)cc3)cn3c2CCC3)cc1 [Compound 4] |  |  |  |  |  |  |  | 700 | 10000 | 0.005 |  |
| COC1c2c(-c3ccccc3)c(-c3ccc(Cl)cc3)c(C)n2CC1(C)C (centres unmarked) [Compound 5] |  |  |  |  |  |  |  | 500 | 60 | 7.5 |  |
| N#Cc1c(NC(=O)c2ccccc2)c(C(=O)Nc2ccc(Br)cc2)n2c1CCC2 [Compound 16, 6-Benzamido-N-(4-bromophenyl)-7-cyano-2,3-dihydro-1H-pyrrolizine-5-carboxamide] | 29.95 | 37.80 | 50.58 | 1.24 | higher analgesic activity than ibuprofen; also recorded: good activity comparable to that of ibuprofen | 83.69 | normal mucosal glands with no histopathological effects |  |  |  | analgesic potency relative to ibuprofen (thermal pain (hot plate)): 1.03 to 1.27 times; Ulcerogenicity UI (ulcer index) (rat stomach mucosa): 2.26; IC50 (COX-1 (ovine)): 2.45 µM; IC50 [3]: 850 nM; SI (COX-2 selectivity index = IC50 of COX-1/IC50 of COX-2) [3]: 2.89 |
| Cc1ccc(S(=O)(=O)Nc2c(C#N)c3n(c2C(=O)Nc2ccc(Br)cc2)CCC3)cc1 [Compound 17, N-(4-Bromophenyl)-7-cyano-6-(4-methylphenylsulfonamido)-2,3-dihydro-1H-pyrrolizine-5-carboxamide] | 27.19 | 40.55 | 49.47 | 1.21 | higher analgesic activity than ibuprofen; also recorded: the most active | 83.69 | little histopathological effects such as congested blood vessels and variable degrees of leukocytes infiltration |  |  |  | analgesic potency relative to ibuprofen (thermal pain (hot plate)): 1.03 to 1.27 times; Ulcerogenicity UI (ulcer index) (rat stomach mucosa): 2.26; IC50 (COX-1 (ovine)): 5.01 µM; IC50 [3]: 1720 nM; SI (COX-2 selectivity index = IC50 of COX-1/IC50 of COX-2) [3]: 2.91 |
| O=C(c1ccccc1)c1ccc2n1CCC2C(=O)O (centres unmarked) [Ketorolac, ketorolac] |  |  |  |  |  |  |  | 1230 |  | 3.6 | selectivity ratio for COX-1 (COX-1; COX-1 over COX-2): 2.9 |
| CC1(C)Cc2c(-c3ccccc3)c(-c3ccc(Cl)cc3)c(CC(=O)O)n2C1 [Licofelone, licofelone] |  |  |  |  |  |  |  | 210 | 180 | > 30 |  |
